Where a name gives a salt, the structure may show the parent alone.

Data set [1] is described as follows: Dynamic vapor sorption (DVS) analysis. Format: physicochemical. The conditions noted are these: for stability to humidity: over a wide range of humidity. How it is done: Approximately, 10-20 mg of sample was placed into a mesh vapor sorption balance pan and loaded into a DVS Intrinsic dynamic vapor sorption balance by Surface Measurement Systems. The sample was subjected to a ramping profile from 40-90% relative humidity (RH) at 10% increments, maintaining the sample at each step until a stable weight had been achieved (dm/dt 0.004%, minimum step length 30 minutes, maximum step length 500 minutes) at 25° C. After completion of the sorption cycle, the sample was dried using the same procedure to 0% RH and then a second sorption cycle back to 40% RH. Two cycles were performed. The weight change during the sorption/desorption cycles were plotted, allowing for the hygroscopic nature of the sample to be determined. XRPD analysis was then carried out on any solid retained.

Data set [2] can be described thus: Intrinsic dissolution studies (disc, Wood's die). It counts as physicochemical. On the procedure:
Discs for the intrinsic dissolution evaluation were prepared by weighing approximately 175 mg of each batch and compressing with a small hydraulic press in a 13 mm Wood's die for 3 minutes at a force of approximately 3000 lbs. The surface of each disc was examined carefully to ensure that it was uniform, smooth and free from loose powder.
The dissolution experiments were conducted by attaching the Wood's die containing the disc, to the matching shafts on an Erweka DT6 dissolution apparatus. The discs were lowered into the media (500 mL at 37° C.) and immediately rotated at 100 rpm. Duplicate samples of the media (0.2 mL) were removed prior to immersion of the disc and then at 2, 5, 10, 15, 20, 25, 30, 60 and 90 minutes after the experiment was initiated. Sampling was discontinued if substantial dissolution was visible or if the disc disintegrated in the media.
At the end of each experiment, the discs were removed from the media and examined to ensure that the surface of the discs remained uniform and to qualitatively assess the extent of dissolution over the course of the experiment. Media samples were centrifuged (10000 rpm×3 min) and a small aliquot (50 μL) removed, 5-fold diluted with 50% aqueous acetonitrile prior to HPLC analysis.

As for `COc1cc(/C=C/C(=O)Nc2ccccc2C(=O)O)ccc1OC(F)F` [Crystalline Salt A], in data set [1] (at 90% RH), the “water uptake corresponding to the mass increase” value was 1.3 equiv. of water. For the same molecule, in data set [1] (at 90% Relative Humidity (RH)), the “mass increase by dynamic vapor sorption” value was 4.2 wt. %. The stability to humidity entry in data set [1] is recorded as “stable over a wide range of humidity”. Besides, the “dissolution profile compared to the free acid of the compound of Formula (I)” value is reported as “superior” in data set [2] (FaSSIF media, 37° C. (FIG. 12)) and “superior” in data set [2] (PBS media, 37° C. (FIG. 13)).
As to `COc1cc(/C=C/C(=O)Nc2ccccc2C(=O)O)ccc1OC(F)F` [Crystalline Salt B], in data set [1], the “hygroscopicity by dynamic vapor sorption/desorption analysis” value is “non-hygroscopic” and the stability to humidity entry is listed as “stable over a wide range of humidity”. Further, in data set [1] (at 90% RH), the “water uptake by dynamic vapor sorption” value is given as “negligible water uptake”. The “dissolution profile compared to the free acid of the compound of Formula (I)” value in data set [2] (FaSSIF media, 37° C. (FIG. 12)) is recorded as “superior”. The “dissolution profile compared to the free acid of the compound of Formula (I)” value in data set [2] (PBS media, 37° C. (FIG. 13)) is “equivalent, if not better”.
